Data on 3 compounds can be found in the NIST ThermoML archive (doi:10.1021/acs.jced.7b00393).

Molecules are shown by their SMILES. Numbers after ± are expanded uncertainties.

A short description of data set [1]: refractive index (Na D-line) (dimensionless); wn = mass fraction of the nth substance listed. Particulars: 81.5 kPa, Liquid, Standard Abbe refractometry.
For data set [2] the following is noted: 298.2 K; 101.33 kPa; Liquid; Vibrating tube method.
Data set [3] can be described thus: refractive index (Na D-line) (dimensionless). As to conditions: 298.2 K; 101.33 kPa; Liquid; Standard Abbe refractometry.

As to `CC(C)c1ccccc1` [isopropylbenzene] + O, the refractive index (usually a measure of how strongly the sample bends light) is recorded as 1.4915 ± 0.0014 in data set [1] (293.2 K, w2 = 0.0006); 1.3335 ± 0.0014 in data set [1] (293.2 K, w2 = 0.9998); 1.49001 ± 0.0014 in data set [1] (298.2 K, w2 = 0.0009); 1.333 ± 0.0014 in data set [1] (298.2 K, w2 = 0.9996); 1.4859 ± 0.0014 in data set [1] (308.2 K, w2 = 0.0011); 1.33195 ± 0.0014 in data set [1] (308.2 K, w2 = 0.9994).

For `CC(C)c1ccccc1` [isopropylbenzene], in data set [2], the mass density – broadly, the mass of a sample divided by its volume – came out at 857.54 ± 1.7 kg/m3. In addition, the refractive index in data set [3] was 1.49005 ± 0.0014.

Regarding `O` [water], the refractive index in data set [3] is on record as 1.3325 ± 0.0014.
